From ChEMBL document CHEMBL3880395, “Novel compounds and methods of use thereof” (2003) come the findings set out here.

Each structure is given as a SMILES string. The source made the active and inactive calls. No cut-off for these calls is given here.

The species named for data set [1] is Rattus norvegicus. In words: Antiangiogenic activity in Sprague-Dawley rat thoracic aortic rings assessed as inhibition of capillary like tube formation at 0.3 ug/ml for 5 days by MTT/MTS assay. Format: functional. The note with it: Thoracic aorta. In general terms: Formazan colour is commonly taken as a measure of viable cells.
The nature of data set [2]: Toxicity in athymic nude mouse xenografted in human SW480 cells xenografted assessed as body weight loss at 200 mg/kg, administered via oral gavage daily for 6 weeks measured twice per every week for 70 days. Type of data set: organism-based. The note with it: in vivo, 1680 h. On the technique in general: A xenograft is tissue or cells of one species grown in another, often human tumour cells in immunodeficient mice.

Data set [3] can be described thus: Cytotoxicity against human HONE1 cells assessed as reduction in cell growth after 72 hrs by MTS assay. Type of data set: functional, cell-based. The settings on record: HONE1, 72 h.
A further data set concerns P388. Kind of data set: Anticancer activity against mouse P388 cells implanted in po dosed DBA/2J mouse assessed as increase in life span administered daily for 4 days measured twice daily during compound dosing. Format: functional, organism-based.
A short description of data set [4]: Anticancer activity against mouse P388 cells implanted in DBA/2J mouse assessed as increase in life span at 200 mg/kg, po administered daily for 4 days measured twice daily during compound dosing. The settings on record: 96 h. Type of data set: functional.
Data set [5] in a line: Toxicity in DBA/2J mouse implanted with mouse P388 cells assessed as body weight loss at 5 to 400 mg/kg, po administered daily for 4 days measured twice daily during compound dosing. Format: organism-based. The settings on record: in vivo, 96 h.
The nature of data set [6]: Toxicity in DBA/2J mouse implanted with mouse P388 cells assessed as body weight loss at 25 to 400 mg/kg, po administered daily for 4 days measured twice daily during compound dosing. The note with it: in vivo, 96 h. Type of data set: organism-based.
The species entered for data set [7] is Rattus norvegicus. In words: Antiangiogenic activity in Sprague-Dawley rat thoracic aortic rings assessed as inhibition of capillary like tube formation at 1 ug/ml for 5 days by MTT/MTS assay. Type of data set: functional. The note with it: Thoracic aorta.

For the molecule `Cc1cc(NC(=O)C(=O)c2cn(Cc3cc(C(C)C)no3)c3ccccc23)sn1`, in the data set listed under Rattus norvegicus [1], the inhibition entry was “Active”. With `N#Cc1ccc(Cn2cc(C(=O)C(=O)Nc3ccc4ncccc4c3)c3ccccc32)cc1`, the inhibition entry in the data set filed under Rattus norvegicus [1] was “Active”. By IC50 is commonly meant the concentration at which inhibition is half-maximal. Usually ILS stands for the gain in survival time of treated over control animals, in per cent. Turning to `Cc1cc(Cn2cc(C(=O)C(=O)Nc3cc(C)ns3)c3ccccc32)on1`, the Activity result in data set [2] and in data set [5] was “Non-Toxic” in each case. Moreover, the half-maximal inhibitory concentration (IC50) in data set [3] lay within 3 to 4 nM. Besides, the increase in life span (ILS) result in the data set on P388 was “Dose-dependent effect”. Moreover, the increase in life span (ILS) at 200 mg/kg in data set [4] turned out to be 100%. Moreover, in the data set listed under Rattus norvegicus [1], the inhibition result is “Active”. As to `Cc1cc(NC(=O)C(=O)c2cn(Cc3ccc(C#N)cc3)c3ccccc23)sn1`, the Activity entry in data set [6] was “Non-Toxic”. Also, the increase in life span (ILS) entry in the data set on P388 was “Dose-dependent effect”. Moreover, the inhibition result in the data set listed under Rattus norvegicus [1] is “Active”.

`Cc1cc(Cn2cc(C(=O)C(=O)Nc3ccc(Br)cc3)c3ccccc32)on1`: in the data set listed under Rattus norvegicus [1], the inhibition result is “Active”. The same measure, in the same setting: then `Cc1cc(NC(=O)C(=O)c2cn(Cc3ccno3)c3ccccc23)sn1`, with “Active”. Same read-out and setting: under `N#Cc1ccc(Cn2cc(C(=O)C(=O)Nc3ccc(I)cc3)c3ccccc32)cc1` stands “Active”; under `CCc1cc(Cn2cc(C(=O)C(=O)Nc3cc(C)ns3)c3ccccc32)on1`, “Active”. `Cc1cc(NC(=O)C(=O)c2cn(Cc3cccs3)c3ccccc23)sn1`: the inhibition entry in the data set listed under Rattus norvegicus [7] is “Active”.

For `Cc1cc(Cn2cc(C(=O)C(=O)Nc3ccc4ncccc4c3)c3ccccc32)on1`, in the data set filed under Rattus norvegicus [1], the inhibition result is “Active”.

In the case of `Cc1cc(NC(=O)C(=O)c2cn(Cc3ccsc3)c3ccccc23)sn1`, in the data set filed under Rattus norvegicus [1], the inhibition entry was “Active”. Same read-out and setting: under `O=C(Nc1ccc2ncccc2c1)C(=O)c1cn(Cc2ccco2)c2ccccc12` stands “Active”.

Turning to `COc1ccc(NC(=O)C(=O)c2cn(Cc3ccccc3C#N)c3ccccc23)cc1`, the inhibition entry in the data set filed under Rattus norvegicus [1] is “Active”. With `O=C(Nc1ccncc1)C(=O)c1cn(Cc2ccc(Cl)cc2)c2ccccc12`, in the data set filed under Rattus norvegicus [7], the inhibition result is “Active”.

With `Cc1cc(NC(=O)C(=O)c2cn(Cc3ccco3)c3ccccc23)sn1`, in the data set listed under Rattus norvegicus [1], the inhibition result was “Active”. Regarding `O=C(Nc1ccc2ncccc2c1)C(=O)c1cn(Cc2cscn2)c2ccccc12`, the inhibition result in the data set listed under Rattus norvegicus [1] is “Active”. `O=C(Nc1ccc2ncccc2c1)C(=O)c1cn(Cc2ccsc2)c2ccccc12`: in data set [6], the Activity entry is “Non-Toxic”. The ILS result with P388 was “Dose-dependent effect”.
